Experiment: Solubility in cosmetic solvents (Cétiol LC, Crodamol DA)
Type: physicochemical
Conditions: solvent Cétinol LC; chromatographed product
Excerpt: Bezüglich der Lipophilität sind die erfindungsgemässen Verbindungen I den eingangs genannten substituierten Triazinen überlegen, indem alle Verbindungen I das im vorliegenden Fall nötige Kriterium, nämlich eine hohe Löslichkeit in kosmetischen Lösungsmitteln wie z.B. Deltyl extra (Isopropylmyristat), Arlanol E (PPG 15-Stearylether), Cétiol LC (Cocoylcapylat/-caprat) oder Crodamol DA (Diisopropyladipat) erfüllen, wie die nachfolgend beispielhaft aufgeführten Verbindungen der Formel I und deren Löslichkeiten in Cetiol LC und/oder in Crodamol DA zeigen (Tabelle II).

| Compound | Löslichkeit in Cétinol LC |
| --- | --- |
| C[Si](C)(C)O[Si](C)(C)CCCCOc1ccc(-c2nc(-c3ccc(OCCCC[Si](C)(C)O[Si](C)(C)C)cc3O)nc(-c3ccc(OCCCC[Si](C)(C)O[Si](C)(C)C)cc3O)n2)c(O)c1 [Beispiel 10, 5,5',5''-Tris-[4-(1,1,1,3,3-pentamethyl-disiloxan-oxy)-butyl-1-oxy]-2,2',2''-(1.3.5)-triazin-2,4,6-triyl-tris-phenol] | 8% |
| C[Si](C)(C)O[Si](C)(C)CCCCCOc1ccc(-c2nc(-c3ccc(OCCCCC[Si](C)(C)O[Si](C)(C)C)cc3O)nc(-c3ccc(OCCCCC[Si](C)(C)O[Si](C)(C)C)cc3O)n2)c(O)c1 [Beispiel 9-1] | > 35% |

From patent EP0863145A2, “Sunscreen compositions” (F. HOFFMANN-LA ROCHE AG, priority 1997, dated 1998)
